Experimental data as given in patent US20240366606A1, “MRGPRX2 ANTAGONISTS AND USES THEREOF” (The Regents of the University of California, priority 2021, published 2024).
Entries after “also recorded” stand apart in the source; their conditions may differ. Like-named read-outs stand apart in the source and are kept apart here.

Tests used:
MRGPRX2 [1] = target: T1, MRGPRX2 (Homo sapiens (Human), UniProt Q96LB1); experiment: FLIPR Ca2+ assay, antagonist mode, tetracycline-inducible MRGPRX2 stable cell line; format: cell-based; details: for antagonist activity for MRGPRX2: in words, SAR around '1592; for inhibition of substance P stimulated MRGPRX2 activation: EC80 substance P concentration
T1 sequence (Q96LB1 whole entry): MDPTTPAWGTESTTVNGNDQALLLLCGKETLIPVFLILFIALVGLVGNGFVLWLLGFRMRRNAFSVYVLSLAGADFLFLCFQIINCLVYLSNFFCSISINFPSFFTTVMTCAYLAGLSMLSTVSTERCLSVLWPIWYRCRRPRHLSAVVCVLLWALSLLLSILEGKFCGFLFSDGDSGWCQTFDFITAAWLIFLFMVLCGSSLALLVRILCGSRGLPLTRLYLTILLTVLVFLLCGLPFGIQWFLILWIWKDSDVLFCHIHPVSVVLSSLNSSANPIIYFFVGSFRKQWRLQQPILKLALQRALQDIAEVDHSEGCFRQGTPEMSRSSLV
Procedure: FLIPR Ca2+ assay. […] NK1 stably expressing cell were maintained in DMEM containing 10% (v/v) FBS, 100 units ml^−1 penicillin G and 100 μg ml^−1 streptomycin. On the day of assay, cells were plated into Poly-L-Lysine (PLL) coated 384-well black clear bottom cell culture plates with DMEM buffer, which is composed of 1% (v/v) dialyzed FBS, 100 units ml^−1 penicillin G, 100 μg ml^−1 streptomycin with 1 μg ml^−1 tetracycline at density of 20,000 cells in 40 μl per well for overnight. For NK1 stable cells, the same media used for MRGPRX2 or MRGPRX4 cells except the tetracycline were used. Medium was removed and cells were incubated with 20 μl of calcium dye (FLIPR Calcium 4 Assay Kit; Molecular Devices) diluted in assay buffer (1×HBSS, 2.5 mM probenecid, and 20 mM HEPES, pH 7.4) for 1 hour at 37° C. and 20 min at room temperature in the dark. To measure agonist activity of receptors, drug plates were prepared with increasing concentrations of test compound at 3 times the desired final concentration using drug buffer (1×HBSS, 20 mM HEPES, 0.1% (w/v) BSA, pH 7.4). Once loaded in FLIPR (Molecular Devices), basal fluorescence was measured for 10 s, then 10 μl of test compounds were added followed by continued fluorescence measurement for an additional 120 s. When measuring antagonist activity of receptors, drug plates were prepared with increasing concentrations of test compound at 4 times the desired final concentration, added as above for their potential effects on basal levels for 120 s first, followed by a 15 min incubation before addition of 10 μl of 4× of reference agonist at final concentration corresponding to the EC80. Data were normalized to % reference compound stimulation and analyzed using nonlinear regression “log(agonist) vs. response” in GraphPad Prism 9.0.

[2] = tested on: a number of GPCRs, ion channels and transporters; experiment: Off-target profiling / inhibition screen (NIMH PDSP binding assays); details: screened at 10 μM
Procedure: Inhibition screen. Binding assays were performed by the NIMH Psychoactive Drug Screening program as described previously (PMID: 23235874). Detailed binding assay protocols are available at: https://pdspdb.unc.edu/pdspWeb/content/UNC-CH %20Protocol %20Book.pdf.

MRGPRX2 [3] = target: T1, MRGPRX2; experiment: BRET1 recruitment assay (inverse agonist activity, miniGq recruitment) in HEK293T cells; format: cell-based
Procedure: Bioluminescence resonance energy transfer assay 1 (BRET1). To test the inverse agonist activities of MRGPRX2 compounds, BRET1 recruitment assay was performed. Human MRGPRX2 containing C-terminal Renilla luciferase (RLuc8), and Venus-tagged miniGq were co-transfected at a ratio of 1:5 using HEK293T cells. After 20-24 hours, transfected cells were plated into poly-L-lysine coated 96-well clear bottom white plate in plating media (DMEM+1% (v/v) dialyzed FBS). The next day, media was decanted and cells were washed once with 60 μl drug buffer (1×HBSS, 20 mM HEPES, 0.1% (w/v) BSA, pH 7.4), then 60 μl drug buffer containing 5 μM coelenterazine h (Promega) was added to each well and incubate for 5 min. Cells were then treated with 30 μl of 3× designated drug for an additional 5 minutes. After drug incubation, plates were read in an LB940 Mithras plate reader (Berthold Technologies) for both luminescence at 485 nm and fluorescent eYFP emission at 530 nm for 1 s per well. The ratio of eYFP/RLuc was calculated per well and the net BRET ratio was calculated and fitted using “log(inhibitor) vs. response” in GraphPad Prism 9.0 to represent the inhibitory effect of MRGPX2 compound.

LAD2 human mast cells = experiment: Human mast cell activation (beta-hexosaminidase release) assay; format: cell-based; details: (R)-ZINC-3573 stimulation; listed as C9
Procedure: Human Mast Cell activation (Beta-hexosaminidase release) Assay. Mast cell activation was assessed by measuring extracellular release of Beta-hexosaminidase, a major component of mast cell granules. To assay human mast cell Beta-hexosaminidase release, LAD2 human mast cells were seeded at a concentration of 2*10^5 cells per well in 96-well plates in Tyrode's buffer (100 μl). 15 minutes prior to activation, varying concentrations of either C7 or C9 were added to the wells to reach a total volume of 190 μl. For activation, (R)-ZINC-3573 (10 μl, 2 μM) was added to each well for 30 minutes at 37° C. Separate wells received either buffer (buffer control), 0.1% Triton X-100 (total beta-hexosaminidase control), or (R)-ZINC-3573 alone (positive control) for the same amount of time. 30 μl of the supernatant were then removed from each well and added to 10 μl of NAG substrate solution (p-nitrophenyl-N-acetyl-β-D-glucosaminide) and allowed to incubate for 1 hour at 37° C. Carbonate buffer (100 μl) was then added to each well and the absorbance of each well was immediately measured at 405 nm using a plate reader. Percent degranulation (%) was calculated as follows: ((Treatment release−buffer release)/(total release−buffer release))*100. Samples were run in quadruplicate and each compound was assayed in at least two independent experiments. Data were analyzed using GraphPad Prism 9.0.

MRGPRX4 = MRGPRX4 (Homo sapiens (Human), UniProt Q96LA9); experiment: FLIPR Ca2+ assay, antagonist mode, tetracycline-inducible MRGPRX4 stable cell line; format: cell-based
MRGPRX4, sequence (Q96LA9 whole entry): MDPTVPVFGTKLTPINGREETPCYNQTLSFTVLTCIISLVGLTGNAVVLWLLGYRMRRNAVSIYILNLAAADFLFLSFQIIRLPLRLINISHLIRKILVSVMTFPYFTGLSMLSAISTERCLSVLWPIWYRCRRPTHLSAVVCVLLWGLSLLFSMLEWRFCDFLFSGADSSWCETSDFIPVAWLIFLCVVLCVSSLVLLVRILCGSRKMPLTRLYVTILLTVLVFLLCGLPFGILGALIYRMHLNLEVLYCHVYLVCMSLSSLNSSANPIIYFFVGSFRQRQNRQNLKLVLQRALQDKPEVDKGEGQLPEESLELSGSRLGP
Procedure: (§1) FLIPR Ca2+ assay. Tetracycline inducible MRGPRX2 or MRGPRX4 stable cells [Flp-In™ T-REx™-293 cell which is derived from HEK 293 cells (ATCC, CRL 1573)] were maintained in DMEM containing 10% (v/v) FBS, 100 units ml^−1 penicillin G, 100 μg ml^−1 streptomycin, 100 μg ml^−1 hygromycin B, and 15 μg ml^−1 blasticidin ^16. NK1 stably expressing cell were maintained in DMEM containing 10% (v/v) FBS, 100 units ml^−1 penicillin G and 100 μg ml^−1 streptomycin. On the day of assay, cells were plated into Poly-L-Lysine (PLL) coated 384-well black clear bottom cell culture plates with DMEM buffer, which is composed of 1% (v/v) dialyzed FBS, 100 units ml^−1 penicillin G, 100 μg ml^−1 streptomycin with 1 μg ml^−1 tetracycline at density of 20,000 cells in 40 μl per well for overnight. For NK1 stable cells, the same media used for MRGPRX2 or MRGPRX4 cells except the tetracycline were used. […] Once loaded in FLIPR (Molecular Devices), basal fluorescence was measured for 10 s, then 10 μl of test compounds were added followed by continued fluorescence measurement for an additional 120 s. […] Data were normalized to % reference compound stimulation and analyzed using nonlinear regression “log(agonist) vs. response” in GraphPad Prism 9.0.

NK1R = NK1R (Homo sapiens (Human), UniProt P25103); experiment: FLIPR Ca2+ assay, antagonist mode, NK1R stable cell line; format: cell-based
NK1R, sequence (P25103 whole entry, species assumed): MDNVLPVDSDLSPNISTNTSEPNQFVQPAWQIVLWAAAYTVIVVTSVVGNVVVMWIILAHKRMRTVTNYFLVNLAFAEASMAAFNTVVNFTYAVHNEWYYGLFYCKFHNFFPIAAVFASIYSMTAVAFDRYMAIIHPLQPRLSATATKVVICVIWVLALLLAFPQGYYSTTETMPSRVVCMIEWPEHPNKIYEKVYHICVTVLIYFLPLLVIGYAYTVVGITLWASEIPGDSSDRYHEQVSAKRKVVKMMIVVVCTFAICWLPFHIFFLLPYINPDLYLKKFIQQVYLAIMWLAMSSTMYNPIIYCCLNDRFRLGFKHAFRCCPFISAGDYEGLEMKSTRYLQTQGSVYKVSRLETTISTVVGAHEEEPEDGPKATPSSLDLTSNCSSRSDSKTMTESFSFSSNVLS
Procedure: as §1

[4] = Table 1, read-out: pKi (calc.) (converted)
[5] = antagonist activity at MRGPRX2, EC80 (R)-ZINC-3573 (3 μM), read-out: Ki value

SMILES	Ki (MRGPRX2 [1]; Table 1, read-out: Ki)	pKi (calc.) (MRGPRX2 [1]; Table 1)	further results
O=c1c2ccccc2[nH]c(=S)n1Cc1ccccc1 [Compound 1]	57 nM		Ki (MRGPRX2 [1]; [4]): 63.1 nM
O=c1c2ccccc2[nH]c(=S)n1Cc1ccon1 [Compound 5]	895 nM		Ki (MRGPRX2 [1]; [4]): 1000 nM
Cn1ccnc1Cn1c(=S)[nH]c2ccccc2c1=O [Compound 6]	318 nM	6.5	
O=c1c2ccccc2[nH]c(=S)n1CCc1ccccn1 [Compound 7]	6520 nM	5.2	antagonist activity for MRGPRX2 (MRGPRX2 [1]): inactive control
COc1cccnc1Cn1c(=S)[nH]c2ccccc2c1=O [Compound 8]	57 nM		Ki (MRGPRX2 [1]; [4]): 63.1 nM
O=c1c2ccccc2[nH]c(=S)n1Cc1nccs1 [Compound 9]	32 nM	7.5	off-target activity [2]: no significant activity; inverse agonist activity, inhibition of basal recruitment of Gq by MRGPRX2 (MRGPRX2 [3]; listed as C9): inhibit the basal recruitment of Gq by MRGPRX2; also recorded: inverse agonists; inhibition of substance P stimulated MRGPRX2 activation (MRGPRX2 [1]; listed as C9): inhibit substance P stimulated MRGPRX2 activation; also recorded: could inhibit MRGPRX2 activation; Ki (MRGPRX2 [1]; [5]): 43 nM; antagonist activity for MRGPRX2 (MRGPRX2 [1]; listed as C9): improved antagonist activity; also recorded: most potent and selective antagonist; inhibition of (R)-ZINC-3573-stimulated LAD2 human mast cell degranulation (LAD2 human mast cells): inhibit MRGPRX2 mediated LAD2 human mast activation; also recorded: inhibit (R)-ZINC-3573-stimulated LAD2 human mast cell degranulation in a concentration-dependent manner; antagonist activity towards MRGPRX4 (MRGPRX4): no antagonist activity; antagonist activity towards NK1R (NK1R): no antagonist activity
O=c1c2cc(F)ccc2[nH]c(=S)n1Cc1ccccn1 [Compound 14]	2520 nM	5.6	
O=c1c2ccccc2[nH]c(=S)n1Cc1ccon1 [Compound C9-1]	172 nM	6.76 ± 0.21	
O=c1c2ccccc2[nH]c(=S)n1Cc1ccc(Cl)cc1 [Compound C9-3]	1780 nM	5.75 ± 0.16	
O=c1c2ccccc2[nH]c(=S)n1Cc1ccccc1Cl [Compound C9-4]	1160 nM	5.93 ± 0.3	
COc1ccccc1Cn1c(=S)[nH]c2ccccc2c1=O [Compound C9-5]	98 nM	7.01 ± 0.07	
O=c1c2ccccc2[nH]c(=S)n1Cc1ccco1 [Compound C9-6]	38 nM	7.42 ± 0.06	off-target activity [2]: no significant activity; inverse agonist activity, inhibition of basal recruitment of Gq by MRGPRX2 (MRGPRX2 [3]): inhibit the basal recruitment of Gq by MRGPRX2; also recorded: inverse agonists; inhibition of substance P stimulated MRGPRX2 activation (MRGPRX2 [1]): inhibit substance P stimulated MRGPRX2 activation; also recorded: could inhibit MRGPRX2 activation; Ki (MRGPRX2 [1]; [5]): 58 nM; antagonist activity for MRGPRX2 (MRGPRX2 [1]): improved antagonist activity; also recorded: most potent and selective antagonist; antagonist activity towards MRGPRX4 (MRGPRX4): no antagonist activity; antagonist activity towards NK1R (NK1R): no antagonist activity
Cc1csc(Cn2c(=S)[nH]c3ccccc3c2=O)n1 [Compound C9-7]	929 nM	6.03 ± 0.08	
O=c1c2ccccc2[nH]c(=S)n1Cc1cccs1 [Compound C9-8]	514 nM	6.29 ± 0.23	
O=c1c2ccccc2[nH]c(=S)n1Cc1ccsc1 [Compound C9-9]	47 nM	7.32 ± 0.04	
O=c1c2ccccc2[nH]c(=S)n1Cc1ccccn1 [ZINC16991592, reference compound]	2190 nM		Ki (MRGPRX2 [1]; [4]): 2340 nM; Ki (MRGPRX2 [1]; [5]): 189 nM
